Test results taken from patent publication US12691114B2, “Compositions for inhibition of herpesviruses” (The Medical College of Wisconsin, Inc., priority 2020, dated 2026).

Key:
HSV2 clinical isolate = assay: Plaque reduction assay, HSV2 in Vero cells; assay type: cell-based, Human Herpesvirus 2; details: plaque reduction
Text: Viruses and antiviral assays: A recombinant pp28-luciferase Towne HCMV strain expressing luciferase under the control of the UL99 (pp28) late promoter was reported to provide a highly-sensitive and reproducible reporter for drug screening^20. A GCV-resistant HCMV pp28-luciferase that contains a C607Y mutation in UL97 was reported^37. The HCMV TB40 strain was obtained from ATCC (VR-1578). Clinical isolates of Human Herpesvirus 1 and 2 (HSV1, HSV2) were collected from the Johns Hopkins Microbiology laboratory without identifiers that could link them to a specific patient. Mouse CMV (MCMV) Smith strain (ATCC VR-1399) was used for infection of MEFs.
Plaque reduction assay: HFFs were seeded into 12-well plates (2×10^5 cells/well) and infected with HCMV TB40 at approximately 100 plaques/well. After 90 min, media were aspirated, and DMEM containing 0.5% carboxymethyl-cellulose (CMC), 4% fetal bovine serum (FBS), and drugs were added into duplicate wells. Following incubation at 37° C. for 10-12 days the overlay was removed, and plaques were counted after crystal violet staining. For HSV1 and HSV2 replication in Vero cells, the adsorption time was 60 min and plaques were counted after 36 h. Plaque assays in MEFs were completed after 3 days.
Inhibition of other herpesviruses: Inhibition of herpes simplex 1 and 2 (HSV1, HSV2), Epstein Barr virus (EBV) and mouse CMV (MCMV) was tested with the five compounds. Plaque reductions assays were used for HSV1, HSV2 and MCMV. Inhibition of lytic EBV replication was measured by real-time PCR in AKATA cells following IgG induction. Only MLS8554 was active against HSV1, HSV2 and MCMV (Table 2).

GCV-resistant HCMV Towne = assay: Plaque reduction assay, GCV-resistant HCMV Towne in HFFs; assay type: cell-based, human cytomegalovirus; details: Human betaherpesvirus 5, read-out: EC50—GCVR Towne (μM)
MEFs = assay: Toxicity to MEFs; assay type: cell-based, mouse

| Compound | activity against HSV2, in words (HSV2 clinical isolate) | EC50 (HSV2 clinical isolate; Vero cells, NA = Not active, read-out: EC50—HSV2-C1) [nM] | EC50 (GCV-resistant HCMV Towne) [µM] | concentration at which toxicity to MEFs was observed (MEFs) [µM] |
| --- | --- | --- | --- | --- |
| CCc1ccc(NC(=O)[C@H](Cc2c[nH]c3ccccc23)NC(=O)[C@@H]2Cc3ccccc3CN2)cc1 [MLS8554] | active | 1300 ± 100 | – | – |
| CC(C)NC(=O)C1CCN(C(=O)c2cc3sccc3n2Cc2ccc(Cl)cc2)CC1 [NCGC2955, 1-(4-(4-chlorobenzyl)-4H-thieno[3,2-b]pyrrole-5-carbonyl)-N-isopropylpiperidine-4-carboxamide] | – | – | 1.4 ± 0.2 | ≥ 10 |
